One experiment concerns the target PDE4B2 (Homo sapiens (Human), UniProt Q07343). Description: PDE4 Inhibition Assay (TR-FRET IMAP, FAM-cAMP substrate). The class given is biochemical. Particulars: 100 nM cAMP, 30° C., 90 minutes. The protocol: (§1) A TR-FRET-based phosphodiesterase assay kit from “Molecular Devices” was used to test whether these compounds were indeed direct inhibitors of the PDE4 enzyme. Using Roflumilast as a positive control, compounds of the present invention were tested against fluorescein-labeled cAMP substrate. The principle of the assay is based on the binding of a nucleotide monophosphate generated upon cAMP conversion to 5′ AMP by PDE to an “IMAP binding reagent”, which in turn is also ligated to a separate complex carrying terbium (Tb)-donor molecule. Proximity of the fluoreceinated 5′AMP to the Tb donor generates Fluorescence Resonance Energy Transfer. A PDE inhibitor will reduce the conversion of cAMP to 5′AMP, thus reducing monophosphate that can bind to the IMAP binding reagent and reduce the resulting FRET signal.
(§2) The assay buffer was prepared by diluting 5× supplied Tween-based buffer in 1:5 in water to make 1× buffer. Add desired additive to buffer (DTT or MnCl2). In a separate 96-well polypropylene plate, compound dilutions were prepared in assay buffer. Separate microcentrifuge tubes were prepared of PDE4B and PDE4D according to assay template—in assay buffer. The tubes were kept on ice. The enzyme concentration shown on the template were diluted by 1:4. FAM-cAMP substrate solution was prepared according to assay template. 5 μl compound was transferred from polypropylene plate into black 384-well plate. This plate was centrifuged briefly to make sure all 5 μl is on the bottom. Up to 80 μl of prepared PDE4B enzyme solution was transferred into alternate wells on row ‘N’ of 384-well plate starting from cell N1. Up to 80 μl of prepared PDE4D enzyme solution was transferred into alternate wells on row ‘O’ of 384-well plate, starting from cell O2. cAMP substrate solution was transferred into bottom row of separate 96-well plate. 5 μl of enzyme solution from the “reservoir” row (N or O) was transferred to each of the wells containing compounds, per layout map. Next, 10 μl of cAMP substrate was transferred to these wells. The order of substrate-first or enzyme-first can be switched depending on what is optimal. The final cAMP concentration was 100 nM in the reaction. 20 μl of assay buffer was pipetted into 4 separate wells—these are the blanks. The plate was sealed with an aluminum strip and incubated at 30° C. for 90 minutes. A TR-FRET solution was prepared. […]. 25 μl ( 1/800 of 20 ml) of binding beads was added to this and mix by inverting. 60 μl of this mixture was pipetted into 2 of the wells containing the “blank” assay buffer. Next, 49.7 μl ( 1/400 of remaining volume) of Tb donor solution was added to the remaining TR-FRET solution and mixed by inverting. 60 μl of this solution was pipetted into remaining 2 “blank” assay buffer-containing wells. The TR-FRET solution was poured into a pipette boat and a multichannel pipette was used to drop 60 μl of solution into all assay wells. The wells were covered with a foil strip and incubated for at least 3 hours or overnight protected from light (e.g. in a drawer) at room temperature. The plate was read on the Envision Reader: Emission 1: 520/Emission 2: 486/Exc: 340. Mirror: Umbelliferone (UV).
On the technique in general: In TR-FRET formats the signal depends on donor and acceptor labels being close together.

A further experiment concerns the target PDE4D (Homo sapiens (Human), UniProt Q08499). Described as above. It counts as biochemical. As to conditions: 100 nM cAMP, 30° C., 90 minutes. The protocol: as §1, §2

The structures appear in SMILES notation. Structures can show the parent of a compound that is named as a salt.

Chain of PDE4D (Q08499 whole entry, species assumed): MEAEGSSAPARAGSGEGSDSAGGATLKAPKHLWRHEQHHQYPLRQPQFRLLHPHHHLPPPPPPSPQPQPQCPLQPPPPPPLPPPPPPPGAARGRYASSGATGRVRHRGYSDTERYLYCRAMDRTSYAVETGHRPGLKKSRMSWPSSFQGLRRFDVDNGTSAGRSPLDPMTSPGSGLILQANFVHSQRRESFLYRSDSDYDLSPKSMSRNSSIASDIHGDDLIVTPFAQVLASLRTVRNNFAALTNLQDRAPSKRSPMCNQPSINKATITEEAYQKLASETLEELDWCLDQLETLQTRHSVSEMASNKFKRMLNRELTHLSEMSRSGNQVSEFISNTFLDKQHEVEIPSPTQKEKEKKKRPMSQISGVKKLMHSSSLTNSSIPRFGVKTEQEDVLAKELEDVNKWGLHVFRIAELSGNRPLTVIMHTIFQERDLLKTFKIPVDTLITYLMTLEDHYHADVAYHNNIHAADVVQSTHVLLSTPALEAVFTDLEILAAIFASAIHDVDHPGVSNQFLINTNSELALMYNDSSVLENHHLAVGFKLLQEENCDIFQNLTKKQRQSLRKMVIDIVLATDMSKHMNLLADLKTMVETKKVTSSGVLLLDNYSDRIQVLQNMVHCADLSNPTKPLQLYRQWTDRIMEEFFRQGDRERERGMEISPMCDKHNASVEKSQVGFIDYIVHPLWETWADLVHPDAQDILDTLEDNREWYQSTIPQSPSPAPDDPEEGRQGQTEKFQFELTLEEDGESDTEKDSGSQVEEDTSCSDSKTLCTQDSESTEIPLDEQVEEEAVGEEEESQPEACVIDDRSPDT
Chain of PDE4B2 (Q07343 other isoform, or with tags, fused parts or gaps, species assumed): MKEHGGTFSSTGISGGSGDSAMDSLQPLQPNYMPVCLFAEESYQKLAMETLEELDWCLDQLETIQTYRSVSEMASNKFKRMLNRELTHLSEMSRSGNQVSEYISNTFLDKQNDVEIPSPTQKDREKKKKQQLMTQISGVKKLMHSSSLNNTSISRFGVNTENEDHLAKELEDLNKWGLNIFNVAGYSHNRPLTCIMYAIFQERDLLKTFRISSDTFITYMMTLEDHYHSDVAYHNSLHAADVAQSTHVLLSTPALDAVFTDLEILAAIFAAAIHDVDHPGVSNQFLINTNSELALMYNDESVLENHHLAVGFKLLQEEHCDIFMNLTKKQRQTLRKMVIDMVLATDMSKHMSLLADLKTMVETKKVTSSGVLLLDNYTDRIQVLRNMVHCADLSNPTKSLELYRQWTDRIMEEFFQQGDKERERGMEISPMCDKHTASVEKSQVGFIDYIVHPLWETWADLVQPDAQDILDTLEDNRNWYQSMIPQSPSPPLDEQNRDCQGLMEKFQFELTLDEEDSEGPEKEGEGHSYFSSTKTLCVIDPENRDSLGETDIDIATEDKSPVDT

In the case of `COc1cccc2c1ncc1c(=O)n(-c3cccc(C)c3)c(=O)n(C3CCCC3)c12` [Example 54, 1-Cyclopentyl-7-methoxy-3-m-tolyl-1H-pyrimido[5,4-c]quinoline-2,4-dione], the IC50 (usually the concentration that inhibits the measured activity by half) is 78 nM against PDE4B2 and 338 nM against PDE4D.
On to `CCn1c(=O)c2cnc3c(C(C)C)cccc3c2n(C2CCCC2)c1=O` [Example 33, 1-Cyclopentyl-3-ethyl-7-isopropyl-1H-pyrimido[5,4-c]quinoline-2,4-dione], for which the values for the IC50 against PDE4B2 and against PDE4D were 12400 nM and 25000 nM, respectively.
For `COc1cccc2c1ncc1c(=O)n(-c3cccc(Cl)c3)c(=O)n([C@H]3CC[C@H](NS(C)(=O)=O)CC3)c12` [Example 127, N-{4-[(S)-3-(3-Chloro-phenyl)-7-methoxy-2,4-dioxo-3,4-dihydro-2H-pyrimido[5,4-c]quinolin-1-yl]-trans-cyclohexyl}-methanesulfonamide] the same measures were 25 nM and 73 nM.
Consider `COc1cccc2c1ncc1c(=O)n(-c3cccc(Cl)c3)c(=O)n([C@H]3CCN(S(C)(=O)=O)C3)c12` [Example 118, 3-(3-Chloro-phenyl)-1-((S)-1-methanesulfonyl-pyrrolidin-3-yl)-7-methoxy-1H-pyrimido[5,4-c]quinoline-2,4-dione], for which the values for the IC50 on PDE4B2 and on PDE4D were 80 nM and 206 nM, respectively.
Regarding `CCS(=O)(=O)N1CCC(n2c(=O)n(-c3cccc(Cl)c3)c(=O)c3cnc4c(OC)cccc4c32)CC1` [Example 121, 3-(3-Chloro-phenyl)-1-(1-ethanesulfonyl-piperidin-4-yl)-7-methoxy-1H-pyrimido[5,4-c]quinoline-2,4-dione], the values for the IC50 against PDE4B2 and at PDE4D were 26 nM and 59 nM, respectively.
In the case of `COc1cccc2c1ncc1c(=O)n(-c3cccc(Cl)c3)c(=O)n(C3CCN(S(C)(=O)=O)CC3)c12` [Example 92, 3-(3-Chloro-phenyl)-1-(1-methanesulfonyl-piperidin-4-yl)-7-methoxy-1H-pyrimido[5,4-c]quinoline-2,4-dione], the IC50 on PDE4B2 amounted to 68 nM; against PDE4D, 151 nM.
The like results for `COc1cccc2c1ncc1c(=O)n(-c3cc(C)cs3)c(=O)n(C3CCCC3)c12` [Example 51, 1-Cyclopentyl-7-methoxy-3-(4-methyl-thiophen-2-yl)-1H-pyrimido[5,4-c]quinoline-2,4-dione] were, in that order, 126 nM and 616 nM.
As to `COc1cccc2c1ncc1c(=O)n(-c3cccc(Cl)c3)c(=O)n([C@@H]3CCN(S(C)(=O)=O)C3)c12` [Example 115, 3-(3-Chloro-phenyl)-1-((R)-1-methanesulfonyl-pyrrolidin-3-yl)-7-methoxy-1H-pyrimido[5,4-c]quinoline-2,4-dione], the IC50 worked out at 49 nM against PDE4B2 and 163 nM against PDE4D.
On to `CCCc1cccc2c1ncc1c(=O)n(CC)c(=O)n(C3CCCC3)c12` [Example 32, 1-Cyclopentyl-3-ethyl-7-propyl-1H-pyrimido[5,4-c]quinoline-2,4-dione], for which the IC50 against PDE4B2 and at PDE4D was 25000 nM throughout.
As for `COc1cccc2c1ncc1c(=O)n(-c3cccc(Cl)c3)c(=O)n([C@H]3CC[C@H](C(=O)O)CC3)c12` [Example 103, Trans-4-[3-(3-Chloro-phenyl)-7-methoxy-2,4-dioxo-3,4-dihydro-2H-pyrimido[5,4-c]quinolin-1-yl]-cyclohexanecarboxylic acid.hydrochloride], the results for the IC50 on PDE4B2 and at PDE4D were 17 nM and 55 nM, respectively.
Consider `COc1cccc2c1ncc1c(=O)n(-c3ccc4c(c3)OCO4)c(=O)n(C3CCCC3)c12` [Example 84, 3-Benzo[1,3]dioxol-5-yl-1-cyclopentyl-7-methoxy-1H-pyrimido[5,4-c]quinoline-2,4-dione], for which the IC50 came to 513 nM on PDE4B2 and 827 nM against PDE4D.
Take `CCn1c(=O)c2cnc3c(Cl)cccc3c2n(C2CCCC2)c1=O` [Example 30, 7-Chloro-1-cyclopentyl-3-ethyl-1H-pyrimido[5,4-c]quinoline-2,4-dione]: the IC50 at PDE4B2 was found to be 17000 nM; on PDE4D, 25000 nM.

The values are drawn from patent US8853226B2, “Tricyclic compounds as modulators of TNF-α synthesis and as PDE4 inhibitors” (High Point Pharmaceuticals, LLC, priority 2008, dated 2014).
